Reference: US20040152648A1, “Pyruvate-kinase as a novel target molecule” (priority 2001, published 2004)
Where a SMILES comes first, the peptide text is derived from it. [ ]: non-standard residue; d: D form. Nle = CCCC[C@H](N)C(=O)O

Legend:
Type in all cases: cell-based
[1] = system: nuclear PK-M2 processing in Cos-7 cells; test: protease inhibitor pre-treatment, electrophoretic mobility of nuclear PK-M2; settings: Cos-7 cells pre-treated with protease inhibitor
[2] = target: T1, pEGFP-PK-M2 (pyruvate-kinase fused to GFP) in Cos-7 cells (Homo sapiens, UniProt P14618); test: nuclear translocation of GFP-fused pyruvate-kinase in transiently transfected Cos-7 cells; settings: pEGFP-PK-M2, 1 mM hydrogen peroxide for 4 hours, FIG. 4
T1 construct: producing wild type pyruvate-kinase N-terminally fused to GFP; expressed in transfected cells; host or cells: Cos-7
Description: Nuclear translocation of the pyruvate-kinase upon different apoptotic stimuli. Cos-7 cells were transiently transfected with pEGFP-PK-M2 eukaryotic expression plasmid (producing wild type pyruvate-kinase N-terminally fused to GFP)
Nuclear translocation of the pyruvate-kinase deletion mutants upon apoptotic stimuli. […] (Ex: 485 nm=GFP, Ex: 390=propidium-iodide)
Cells were fixed with 1% glutaraldehyde and the localisation of GFP was detected and analysed with fluorescent microscope and InoVision confocal imaging software. Nuclei were stained with propidium-iodine (FIG. 5).

[3] = system: endogenous PK-M2 in Cos-7 cells; test: subcellular localisation of endogenous PK-M2, cytosolic/nuclear fractions, Western-blot; settings: 50 μM TT-232 or 100 μM hydrogen-peroxide, FIG. 8
Protocol: Subcellular localisation of endogenous PK-M2 upon peroxide or UV stimulation. Cos-7 cells were untreated, treated with 50 μM TT-232 (A), 100 μM hydrogen-peroxide (B), or 120 mJ/cm^2 UV (C) and incubated for different times as indicated. Cells were separated into cytosolic (c) or nuclear (n) fractions loaded in triplicate and blotted with PK-M2 (uppest panels), Erk-2 (middle panels) or Histone H1 (lowest panels).
In order investigate further Cos-7 cells were treated, separated into cytosolic and nuclear fractions by NP-40 lysis and analysed with polyclonal PKM2 specific antibody (Weernink et al., 1988) for endogenous PK-M2 by Western-blots. To rule out cross contamination, samples were loaded in triplicate and blotted with PK-M2, Erk-2 or Histone H1 antibodies.

T1 sequence (P14618 whole entry, the tested form may be a part): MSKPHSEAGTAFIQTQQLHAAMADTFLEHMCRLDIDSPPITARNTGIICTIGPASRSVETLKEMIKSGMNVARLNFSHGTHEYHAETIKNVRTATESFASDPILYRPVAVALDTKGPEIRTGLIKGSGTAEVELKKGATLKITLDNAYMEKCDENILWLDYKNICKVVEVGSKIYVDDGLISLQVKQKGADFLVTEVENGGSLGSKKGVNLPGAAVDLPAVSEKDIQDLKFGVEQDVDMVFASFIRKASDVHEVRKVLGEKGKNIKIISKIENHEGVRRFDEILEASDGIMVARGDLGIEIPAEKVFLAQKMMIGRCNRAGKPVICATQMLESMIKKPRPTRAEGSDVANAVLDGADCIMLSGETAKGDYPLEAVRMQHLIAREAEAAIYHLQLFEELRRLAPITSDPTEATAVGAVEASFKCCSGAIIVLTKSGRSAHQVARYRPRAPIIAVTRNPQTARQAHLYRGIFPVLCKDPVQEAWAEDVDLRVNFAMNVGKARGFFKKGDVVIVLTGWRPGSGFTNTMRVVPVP

Q: With NCCc1ccc(S(=O)(=O)F)cc1 [AEBSF] as the molecule, how does the “reversal of increased electrophoretic mobility of nuclear enzyme” value [1] read?
A: not able to revert this effect

Q: Which “reversal of increased electrophoretic mobility of nuclear enzyme” value [1] does the source give for CCCC[C@@H](C=O)NC(=O)[C@H](CC(C)C)NC(=O)[C@H](CC(C)C)NC(C)=O [ALLN] (Ac-Leu-Leu-[Nle]-aldehyde) here?
A: not able to revert this effect

Q: With Cc1ccc(S(=O)(=O)N[C@@H](Cc2ccccc2)C(=O)CCl)cc1 [TPCK] as the molecule, how does the “reversal of increased electrophoretic mobility of nuclear enzyme” value [1] read?
A: not able to revert this effect

Q: Which “nuclear translocation of GFP-fused pyruvate-kinase” value [2] does the source give for OO [hydrogen peroxide] here?
A: nuclear translocation of the pyruvate-kinase occurs

Q: And the “translocation of endogenous PK-M2 into the nucleus” value [3]?
A: induced the translocation of the endogenous PK-M2 into the nucleus
